Each structure is given as a SMILES string. Like-named read-outs stand apart in the source and are kept apart here.

Data set [1] relates to OVCAR-3. The data set is described as follows: Cytotoxicity IC50 experiments, XTT kit, 24 h incubation. The settings on record: for IC50: 24 h incubation, XTT, read-out: IC-50 values after 24 h incubation, OVCAR-3; for viability at 20 µM: OVCAR-3, 20 μM, 24 h, read-out: cell viability. The format is cell-based. How it is done:
(§1) Aloe-emodin was purchased from Molekula.
(§2) The cells were incubated for 24 h.
(In general: Tetrazolium dyes change colour on reduction, which living cells bring about.)

For data set [2], the system named is NAR cells. The data set is described as above. The note with it: for viability at 100 µM: read-out: cell viability; for IC50: DOX resistant, P-gp overexpressing. How it is done:
as §1, §2
Finally, AEGs 13-16 were evaluated against DOX resistant ovarian cancer NAR cells in which resistance is conferred by overexpression of P-gp efflux pumps^[36]

The test system of data set [3] is supercoiled plasmid PBR322. The data set is described as follows: Supercoiled plasmid DNA unwinding gel experiment (DNA intercalation). The class given is binding. How it is done: Eppendorf tubes containing 3 μL supercoiled plasmid PBR322 (0.167 μg/ml), 14 μL tris-HCl-di-natrium-EDTA (TE X1) and 5 μL, AE, or one of the AEGs 1-4 or doxorubicin, at different concentrations were incubated for 15 min at 37° C. The samples were then added with 2 μl of loading buffer, and loaded on a 1% agarose gel in tris-HCl-boric-acid-di-natrium-EDTA (TBE X1). Samples were on the gel run for 15 min at 50 V and an additional 225 min at 70V. The gels were then immersed in a 0.5 mg/ml solution of ethidium bromide shaken for 20 min., washed with DDW for […]. DNA was visualized by UV illumination.
The DNA intercalation property of AEGs 13-16 was studied by applying the robust supercoiled plasmid DNA unwinding gel experiments protocol.^[23,37,38] Briefly, samples containing one of the AEGs 13-16, DOX or AE were pre-incubated with PBR322DNA plasmid, loaded on a 1% agarose gel, run for 4 hours at 70 volts and stained with ethidium bromide. […] At 200 μM.

Data set [4] has as its system MOLT-4. The data set is described as follows: Cytotoxicity IC50 experiments, XTT kit, 24 h incubation. The note with it: for IC50: read-out: IC-50 values after 24 h incubation, MOLT-4, 24 h incubation, XTT.
Description: The cell lines used in this study were as follows: acute lymphoblastic leukemia (Molt-4), ovarian carcinoma (OVCAR3, NAR), breast adenocarcinomas (MCF7), B16 (murine melanoma), HCT 116 (human colon adenocarcinoma), and MCA 105 (murine fibrosarcoma), that were purchased from ATCC (Manassas, Va.). All cell lines except Molt-4 were grown in Dulbecco's modified Eagle's medium supplemented with 10% FBS, 1 mM L-glutamine, 100 U/ml penicillin, 100 μg/ml streptomycin. Molt-4 cells were grown in RPMI-1640 with the same supplements.
Cells (5×10^3/well) were plated into 96-well microtiter plates and were allowed to adhere (except for the leukemic cells) before treatment. After 24 hours, the plates were added with 5 μL of AEGs or AE or DOX solutions at different concentrations. The cells were incubated for 24 h. Cell viability was determined using an XTT kit protocol (Biological Industries). Optical density (OD) was read at 490 nm with a VERSAmax microplate ELISA reader (Molecular Devices, Sunnyvale, Calif., USA). IC50 values were determined as the concentrations in which the OD value of the tested compound reached 50% of the OD value of the control containing un-treated cells. All experiments were performed in triplicates and repeated three times. All cell lines were grown in Dulbecco's modified Eagle's medium (or RPMI-1640 for Molt-4 cells) supplemented with 10% FBS, 1 mM L-glutamine, 100 U/ml penicillin, 100 μg/ml streptomycin. Cells were maintained in a humidified chamber of 95% air 5% CO2 at 37° C.
Data set [5] relates to B16 (murine melanoma). The data set is described as follows: Cytotoxicity assay of compounds 11 and 12 (XTT, % cytotoxicity). How it is done:
(§3) The respective cell type at 1×10^4 cells/well was incubated for 24 hours in 96-well plates and cell viability was determined using the 2,3-bis(2-methoxy-4-nitro-5-sulphophenyl)-2H-tetrazolium-5-carboxanilide (XTT) kit (Biological Industries, Israel). […] Optical density is directly proportional to the number of living cells in culture. Cytotoxicity (%) was calculated in the following way: [(absorbance of control cells−absorbance of drug-treated cells)/absorbance of control cells]×100. Results shown are averages of 3 repeats ±SE.

In data set [6] the test system is HCT 116 (human colon adenocarcinoma). The description is as above. How it is done:
as §3

Data set [7] deals with MCA 105 (murine fibrosarcoma). The data set is described as above. How it is done: as §3
Data set [8] has as its system Molt-4 (human T cell leukemia). The description is as above. How it is done: as §3
Data set [9] deals with MCF-7. In words: Cytotoxicity IC50 experiments, XTT kit, 24 h incubation. The settings on record: Homo sapiens, MCF7, 24 h, read-out: cell viability. How it is done:
as §1, §2

For data set [10] the following is noted: cited from earlier work.
For data set [11], the system named is MCF-7 cells. The data set is described as follows: Light microscopy study of treated cells. The note with it: MCF-7, 20 μM, 24 hours, x400. The class given is cell-based. How it is done: FIG. 9: Light microscopy (x400) pictures of MCF-7 cells: Cell cultures were incubated for 24 hours. (a) Untreated control cells (b) AE 20 μM (c), Dox 20 μM, (d) AEG 13 20 μM.
Cells micrographs were obtained using a light microscope (Olympus IX50-S8F2 inverted phase microscope) at x400 magnification.

Data set [12] concerns DOX resistant NAR cells. The data set is described as follows: Fluorescent confocal microscopy study of cell permeability. The settings on record: 5 μM, two hour incubation. The format is cell-based. How it is done: Cells (1×10^5/well) were plated into 24-well microtiter plates and incubated over coverslips for 24 hours. The cells were then added with one of the AEGs or DOX or AE at a total sample concentration of 5 μM. After 2 hours of incubation, the cells were washed three times, using PBS×1 (0.5 ml per well), and incubated with paraformaldehyde (3.7% in PBS 0.5 ml per well). After 15 min at ambient temperature, the cells were washed twice using PBS×1 0.5 ml per well. Cells were shaken at 50 rpm for 5 min after each wash. The plasma membrane of the fixated cells was stained by incubation of the samples with 300 μl of DiIC18(5)-DS ([…]) at 4° C. After 20 min, the cells were washed twice using PBS×1 0.5 ml per well. Cells were shaken at 50 rpm for 5 min after each wash. Finally, the samples were placed on a microscope slide and fixed using 10 μl of mounting. The slides were observed using an Andor Revolution Imaging System equipped with a Yokogawa CSU-X1 Spinning Disk Unit and an iXon 897 back-illuminated EMCCD camera, and mounted on a custom made Olympus IX-Upright microscope at Ex/Em=488/525 nm for DOX and AE glycoside I and Ex/Em=640/685 nm for DiIC18 (5)-DS.
A possible explanation for the potency of the synthetic AEGs against. DOX resistant cells was provided using fluorescent confocal microscopy (FIG. 11). […]

Setting [13] is: read-out: IC-50 values after 24 h incubation, NAR, 24 h incubation, XTT.
[14] abbreviates: B16, 24 hours of incubation, E-1 at the highest concentration.
[15] abbreviates: HCT116, 24 hours of incubation, E-1 at the highest concentration.
[16] abbreviates: MCA 105, 24 hours of incubation, E-1 at the highest concentration.
Setting [17] is: Molt-4, 24 hours of incubation, E-1 at the highest concentration.
Where [18] appears, read: 24 h, read-out: IC-50 values after 24 h incubation, NAR, 24 h incubation, XTT.

In general, viability refers to the share of living cells, or the viability signal relative to a control. Regarding `CC1O[C@H](OCc2cc(O)c3c(c2)C(=O)c2cccc(O)c2C3=O)CC(N)[C@H]1O` (some centres unmarked) [AEG 14], the IC50 in data set [1] is 6.4 ± 0.2 µM; in [2] (setting [13]), > 100 µM; in data set [4], 7.6 ± 1.6 µM. Besides, the viability at 100 µM in data set [2] (24 h) stood at 65%. For the same compound, the DNA shift effect result in [3] (200 μM) is reported as “weak effect”.
On to `NC1CC(OCc2cc(O)c3c(c2)C(=O)c2cccc(O)c2C3=O)OCC1O` [E-1, Aloe-Emodin connected through C-7 to alpha 2-deoxy-3-deoxy-3-amino-L-xylopyranose], for which the “cytotoxicity, general outcome (FIG. 4B)” value in data set [5] (setting [14]) is reported as “much more effective than Alo”. Besides, the “cytotoxicity, general outcome (FIG. 4C)” value in data set [6] (setting [15]) is on record as “much more effective than Alo”. Further, in [7] (setting [16]), the “cytotoxicity, general outcome (FIG. 4D)” value is listed as “much more effective than Alo”. The cytotoxicity entry in [8] (Molt-4, 100 μM, 4 hours of incubation) was “about 90%”. For the same compound, in data set [8] (setting [17]), the “cytotoxicity, general outcome (FIG. 4A)” value is “much more effective than Alo”.
`NC1CC(OCc2cc(O)c3c(c2)C(=O)c2cccc(O)c2C3=O)OCC1O` [E-2, Aloe-Emodin connected through C-7 to beta 2-deoxy-3-deoxy-3-amino-L-xylopyranose]: the “cytotoxicity, general outcome (FIG. 4B)” value in data set [5] (setting [14]) is on record as “much weaker effect”. The “cytotoxicity, general outcome (FIG. 4C)” value in data set [6] (setting [15]) is reported as “much weaker effect”. The “cytotoxicity, general outcome (FIG. 4D)” value in [7] (setting [16]) is “much weaker effect”. Besides, in [8] (setting [17]), the “cytotoxicity, general outcome (FIG. 4A)” value is “much weaker effect”. Also, in data set [8] (Molt-4, up to 8 hours of incubation), the “toxicities (cytotoxicity)” value is on record as “about 20%”.
One may read the cell viability as a read-out of living cells in per cent, often relative to untreated cells. A lower cell viability goes with a greater loss of cells. As to `O=C1c2cccc(O)c2C(=O)c2c(O)cc(CO)cc21` [AE, Aloe-emodin], the IC50 in data set [1] (Homo sapiens, OVCAR-3, 24 h) is > 20 µM; in data set [2] (setting [18]) it was > 100 µM; in [4], > 20 µM. In data set [9], the viability at 20 µM is 77%. For the same compound, the viability at 100 µM in [2] (24 h) turned out to be 78%. The “toxicities (cytotoxicity)” value in data set [8] (human) is on record as “about 20%”. For the same compound, the “solubility in water and in physiological solutions” value in data set [10] is listed as “hardly soluble”. Besides, in data set [4] (MOLT-4, 20 μM, 24 h), the cell viability is 100%.
Consider `CC1O[C@@H](OCc2cc(O)c3c(c2)C(=O)c2cccc(O)c2C3=O)CC(N)[C@H]1O` (some centres unmarked) [AEG 13], for which the IC50 turned out to be 5.2 ± 0.1 µM in data set [1], 8.6 ± 0.6 µM in data set [2] (setting [13]) and 5.8 ± 1.3 µM in data set [4]. Besides, the “improvement in cytotoxic potency compared to DOX and AE” value in data set [2] is “at least two orders of magnitude”. The “cell numbers and cell morphology by light microscopy” value in [11] is listed as “a very small number of highly damaged cells was observed”. In addition, the DNA shift effect result in data set [3] (200 μM) is recorded as “most significant effect”. Besides, in data set [12], the “cellular accumulation (cell permeability)” value is recorded as “intracellular accumulation”.
Turning to `CC1O[C@H](OCc2cc(O)c3c(c2)C(=O)c2cccc(O)c2C3=O)CC(N)[C@H]1O` (some centres unmarked) [AEG 16], the IC50 in data set [1] was > 20 µM; in data set [2] (setting [13]) it was 28.3 ± 2.3 µM; in data set [4], 12.8 ± 0.7 µM. The figures for the viability at 20 µM in data set [1] (Homo sapiens) and in data set [9] were 60% and 83%, respectively.
Turning to `COc1cccc2c1C(=O)c1c(O)c3c(c(O)c1C2=O)C[C@@](O)(C(=O)CO)C[C@@H]3O[C@H]1C[C@H](N)[C@H](O)[C@H](C)O1` [DOX, doxorubicin, reference compound], the IC50 in [1] (Homo sapiens, OVCAR-3, 24 h) was > 20 µM; in data set [2] (setting [18]) it was > 100 µM; in [4] it was 0.2 ± 0.07 µM. For the same compound, the viability at 20 µM in [1] (Homo sapiens) was found to be 61%; in data set [9] it was 83%. Also, the cell viability result in [2] (NAR, 100 μM, 24 h) was “not affected at all”. In addition, the “cytotoxicity, general outcome (FIG. 4B)” value in [5] is “much more effective than the other compounds”. In addition, in data set [6], the “cytotoxicity, general outcome (FIG. 4C)” value is “much more effective than the other compounds”. Further, the “cytotoxicity, general outcome (FIG. 4D)” value in data set [7] is given as “much more effective than the other compounds”. For the same compound, in data set [8], the “cytotoxicity, general outcome (FIG. 4A)” value is “much more effective than the other compounds”. In addition, in data set [8] (human), the “toxicities (cytotoxicity)” value is “about 20%”. For the same compound, in data set [11], the “cell numbers and cell morphology by light microscopy” value is “became more spherical in shape and smaller in size”. The DNA shift effect result in data set [3] (20 μM) is recorded as “still significant”; in data set [3] (200 μM), “intense effect”. Further, in data set [12], the “cellular accumulation (cell permeability)” value is “accumulated mainly in the plasma membrane”.
With `CC1O[C@@H](OCc2cc(O)c3c(c2)C(=O)c2cccc(O)c2C3=O)CC(N)[C@H]1O` (some centres unmarked) [AEG 15], the results for the IC50 in [1], in data set [2] (setting [13]) and in data set [4] were 15.7 ± 0.8 µM, 18 ± 1.3 µM and 5.4 ± 0.4 µM, respectively.

These data come from patent US20130045933A1, “ALOE-EMODIN DERIVATIVES AND USE THEREOF FOR THE TREATMENT OF CANCER” (RAMOT AT TEL-AVIV UNIVERSITY LTD., priority 2010, published 2013).
